The results in this text go back to patent US20030125234A1, “Alteration of protein stability” (priority 2001, published 2003).

Type in all cases: biochemical
One experiment has as its target T1, bovine alpha-lactalbumin (Bos taurus, UniProt P00711).
T1 construct: purchased Sigma
T1 sequence (P00711 20-142): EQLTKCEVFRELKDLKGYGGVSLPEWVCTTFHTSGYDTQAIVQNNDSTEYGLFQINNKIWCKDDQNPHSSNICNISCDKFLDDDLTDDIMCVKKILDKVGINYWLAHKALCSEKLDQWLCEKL
As to the kind of experiment: Alpha-lactalbumin aggregation (turbidity at 360 nm) induced by DTT. The conditions noted are these: for inhibition index: α Lactalbumin 0.4 mg/mL, 37° C., DTT, compound 1,000×, standard deviation in parenthesis. On the procedure:
(§1) Bovine insulin [Sigma, St. Louis, Mo., USA] was dissolved in phosphate saline (PBS) (50 mM sodium biphosphate, 100 mM sodium chloride), pH 7.0, bovine alpha-lactalbumin [Sigma] in 50 mM sodium phosphate, 100 mM sodium chloride and 2 mM EDTA, pH 6.2, chicken egg white lysozyme [Sigma] in 100 mM Tris, 1 mM EDTA, pH 8.2, human acidic fibroblast growth factor (FGF-1) in 6.2 mM sodium biphosphate, 120 mM sodium chloride, pH 7.2, porcine somatotropin (pST) [provided by Pfizer, Inc., Groton, Conn., USA] in 10 mM phosphate, pH 6. 1, human apolactoferrin (HLF) [Sigma] in 20 mM HEPES, 154 mM NaCl, pH 7.4, porcine heart citrate synthase (CS) in 40 mM HEPES, 50 mM KCl, 10 mM (NH4)2SO4 mM potassium acetate, pH 7.8, and yeast alcohol dehydrogenase (ADH) [Sigma] in pH 7.0 PBS. Selection of buffer solutions was based on an extensive series of preliminary studies to obtain appropriate insolubilization kinetics as described below.
(§2) Copper O-phenanthroline (1,10-phenanthroline) was prepared by mixing copper sulfate hexahydrate [Fisher] and o-phenanthroline [Sigma] in a 1:2 ratio. 1 M Dithiothreitol (DTT) was prepared at pH 7.0 PBS. Polyethylene glycol (M.W. 8000, Union Carbide, Danbury, Conn., USA) (PEG) was prepared at 20 mg/mL in 10 mM phosphate, pH 6.1.
(§3) The following compounds were obtained from Sigma and used without further purification: oxalic acid, sodium malonate, succinic acid, glutaric acid, adipic acid, pimelic acid, suberic acid, azelaic acid, guanidine hydrochloride, ammonium formate, beta-alanine, 4-aminobutyric acid, 5-aminovaleric acid, 6-aminocaproic acid, 7-aminoheptanoic acid, hydrazine, ethylenediamine, 1,3-diaminopropane, 1,4-diaminobutane, 1,5-diaminopentane, 1,6-diaminohexane, 1,7-diaminoheptane, Glu-Glu, Glu-Lys, Lys-Lys, diglycine, triglycine, tetraglycine, pentaglycine, and hexaglycine. […] Triglycine and tetraglycine were dissolved in pH 8.6 PBS, while pentaglycine and hexaglycine were dissolved in pH 10.6 PBS.
(§4) Each was either dissolved in pH 7.0 PBS, or pH 6.1 10 mM phosphate, and adjusted to the same pH.
(§5) Protein aggregation was monitored for 1 hour at 360 nm using an HP8453 UV-visible spectrophotometer system [Hewlett Packard, Germany]. […] Insulin (0.25 mg/mL (4.39E-5 M)) aggregation was monitored at 25° C. after addition of potential inhibitors and 20 μL of 1 M DTT (1.27E-4 M). Alpha-lactabumin (0.4 mg/mL (2.82E-5 M)) aggregation was monitored at 37° C. in the presence of 20 μL of 1 M DTT (1.27E-4 M). Lysozyme (0.4 mg/mL (2.86E-5 M)) aggregation was monitored at 25° C. in the presence of 20 μL of 1 M DTT (1.27E-4 M). FGF-1 (50 μg/mL (3.12E-6 M)) aggregation was monitored at 50° C. Porcine somatotropin (1.27 mg/mL (5.76E-5 M)) aggregation was monitored at 60° C. in the presence of PEG 8000 (20 mg/mL) which was included to enhance the protein association process through a simple exclusion volume effect. HLF (0.4 mg/mL (5.23E-6 M)) aggregation was monitored at 43° C. in the presence of 1.27E-4 M DTT. Citrate synthase (96 μg/mL (9.80E-7 M)) aggregation was monitored at45° C. ADH (1 mg/mL (7.14E-6 M)) was monitored at 37° C. following the addition of 7.76E-5 M Cu(OP)2. Aggregation was compared to protein in the absence of the particular dipolar compound. After stirring, experiments were initiated by the addition of proteins followed by stressing reagents to 1 cm pathlength cuvettes employing a seven-position thermostatted sample holder that was cycled at 30-second intervals. Alternatively, a microtiter plate reader was employed under the same conditions in a 96 well format.
(§6) All optical density (OD)360nm versus time results were exported into Excel [Microsoft] for data analysis.

The target in experiment [1] is T2, porcine heart citrate synthase (CS) (Sus scrofa, UniProt P00889).
T2 construct: porcine heart citrate synthase (CS); from tissue; host or cells: porcine heart
T2 sequence (P00889 28-464): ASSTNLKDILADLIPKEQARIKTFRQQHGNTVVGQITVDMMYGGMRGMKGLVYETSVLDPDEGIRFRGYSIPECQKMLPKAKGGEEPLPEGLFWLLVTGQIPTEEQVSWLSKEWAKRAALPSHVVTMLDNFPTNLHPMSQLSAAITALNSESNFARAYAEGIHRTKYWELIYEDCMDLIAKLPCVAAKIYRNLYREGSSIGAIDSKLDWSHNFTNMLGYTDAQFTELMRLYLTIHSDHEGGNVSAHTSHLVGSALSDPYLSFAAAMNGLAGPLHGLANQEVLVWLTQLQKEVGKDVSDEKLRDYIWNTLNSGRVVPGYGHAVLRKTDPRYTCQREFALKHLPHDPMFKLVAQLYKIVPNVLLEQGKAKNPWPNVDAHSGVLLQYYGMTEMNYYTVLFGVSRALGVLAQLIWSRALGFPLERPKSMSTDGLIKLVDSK
Nature of the experiment: Citrate synthase thermal aggregation (turbidity at 360 nm). The conditions noted are these: CS 96 μg/mL, 45° C.; compound 1,000X; standard deviation in parenthesis. As for the experimental part:
as §1, §3, §4, §5
(§7) All optical density (OD)360nm versus time results were exported into Excel [Microsoft] for data analysis. […] The maximum rate of change in OD versus time plots (r) was used to determine the rate of the reaction from the slope at this point.

For experiment [2], the target named is T3, human apolactoferrin (HLF) (Homo sapiens, UniProt P02788).
T3 construct: purchased Sigma
Nature of the experiment: HLF aggregation (turbidity at 360 nm) induced by DTT. The conditions noted are these: HLF 0.4 mg/mL, 43° C., DTT; first HLF column, head 10,000×; standard deviation in parenthesis. On the procedure:
as §1, §2, §3, §4, §5, §6

Experiment [3] concerns the target T4, chicken egg white lysozyme (Gallus gallus, UniProt P00698).
T4 construct: chicken egg white lysozyme [Sigma]; purchased Sigma; host or cells: egg white
Nature of the experiment: Lysozyme aggregation (turbidity at 360 nm) induced by DTT. Particulars: Lysozyme 0.4 mg/mL, 25° C., DTT; compound 1,000×; standard deviation in parenthesis. On the procedure:
as §1, §2, §3, §4, §5, §6

The target of experiment [4] is T5, porcine somatotropin (pST) (Sus scrofa, UniProt P01248).
T5 construct: purchased Pfizer, Inc., Groton, Conn., USA (provided, not bought)
T5 sequence (P01248 27-216): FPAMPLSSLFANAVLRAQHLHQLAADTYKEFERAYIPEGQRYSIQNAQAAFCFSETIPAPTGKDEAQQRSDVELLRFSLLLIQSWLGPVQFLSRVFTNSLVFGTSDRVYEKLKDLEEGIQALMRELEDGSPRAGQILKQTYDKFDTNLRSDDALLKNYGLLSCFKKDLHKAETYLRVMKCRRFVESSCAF
Nature of the experiment: Porcine somatotropin aggregation (turbidity at 360 nm) with PEG 8000. The conditions noted are these: pST 1.27 mg/mL, 60° C., compound 100X, standard deviation in parenthesis. On the procedure:
as §1, §2, §3, §4, §5, §6

Another experiment concerns the target T6, Bovine insulin (Bos taurus, UniProt P01317).
T6 construct: purchased Sigma, St. Louis, Mo., USA
As to the kind of experiment: Insulin aggregation (turbidity at 360 nm) induced by DTT. The conditions noted are these: Insulin 0.25 mg/mL, 25° C., DTT; compound 100×; standard deviation in parenthesis. As for the experimental part: as §1, §2, §3, §4, §5, §6

Experiment [5] deals with T7, yeast alcohol dehydrogenase (ADH) (Saccharomyces cerevisiae, UniProt P00330).
T7 construct: purchased Sigma
T7 sequence (P00330 2-348 limits assumed): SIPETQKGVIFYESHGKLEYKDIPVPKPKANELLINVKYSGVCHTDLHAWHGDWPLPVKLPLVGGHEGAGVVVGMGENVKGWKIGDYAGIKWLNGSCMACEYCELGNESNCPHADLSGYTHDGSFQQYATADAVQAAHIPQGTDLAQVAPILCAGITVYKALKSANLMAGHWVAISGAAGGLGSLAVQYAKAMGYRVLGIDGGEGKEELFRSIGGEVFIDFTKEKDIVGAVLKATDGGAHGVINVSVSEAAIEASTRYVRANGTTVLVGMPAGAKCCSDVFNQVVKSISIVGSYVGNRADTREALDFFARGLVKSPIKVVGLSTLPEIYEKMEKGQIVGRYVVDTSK
Nature of the experiment: ADH oxidation-induced aggregation (turbidity at 360 nm), Cu(OP)2. Particulars: ADH 1 mg/mL, 37° C., Cu(OP)2. As for the experimental part:
as §1, §2, §3, §4, §5, §6

For experiment [6], the target named is human acidic fibroblast growth factor (FGF-1) (Homo sapiens, UniProt P05230). Nature of the experiment: FGF-1 thermal aggregation (turbidity at 360 nm). The conditions noted are these: FGF-1 50 μg/mL, 50° C.; compound 1,000×; standard deviation in parenthesis. As for the experimental part:
as §1, §3, §4, §5, §7

Setting [7] is: compound 1,000X, standard deviation in parenthesis.

Chain of human acidic fibroblast growth factor (FGF-1) (P05230 whole entry): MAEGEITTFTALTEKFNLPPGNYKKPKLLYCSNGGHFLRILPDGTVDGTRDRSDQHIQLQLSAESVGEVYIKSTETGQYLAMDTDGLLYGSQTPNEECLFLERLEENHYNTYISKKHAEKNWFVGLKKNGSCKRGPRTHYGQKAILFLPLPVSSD
T4 sequence (P00698 19-147): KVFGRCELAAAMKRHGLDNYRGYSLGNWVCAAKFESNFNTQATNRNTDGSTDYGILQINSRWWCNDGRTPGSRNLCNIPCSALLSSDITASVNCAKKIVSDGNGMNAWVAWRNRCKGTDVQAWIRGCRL
T3 sequence (P02788 20-710): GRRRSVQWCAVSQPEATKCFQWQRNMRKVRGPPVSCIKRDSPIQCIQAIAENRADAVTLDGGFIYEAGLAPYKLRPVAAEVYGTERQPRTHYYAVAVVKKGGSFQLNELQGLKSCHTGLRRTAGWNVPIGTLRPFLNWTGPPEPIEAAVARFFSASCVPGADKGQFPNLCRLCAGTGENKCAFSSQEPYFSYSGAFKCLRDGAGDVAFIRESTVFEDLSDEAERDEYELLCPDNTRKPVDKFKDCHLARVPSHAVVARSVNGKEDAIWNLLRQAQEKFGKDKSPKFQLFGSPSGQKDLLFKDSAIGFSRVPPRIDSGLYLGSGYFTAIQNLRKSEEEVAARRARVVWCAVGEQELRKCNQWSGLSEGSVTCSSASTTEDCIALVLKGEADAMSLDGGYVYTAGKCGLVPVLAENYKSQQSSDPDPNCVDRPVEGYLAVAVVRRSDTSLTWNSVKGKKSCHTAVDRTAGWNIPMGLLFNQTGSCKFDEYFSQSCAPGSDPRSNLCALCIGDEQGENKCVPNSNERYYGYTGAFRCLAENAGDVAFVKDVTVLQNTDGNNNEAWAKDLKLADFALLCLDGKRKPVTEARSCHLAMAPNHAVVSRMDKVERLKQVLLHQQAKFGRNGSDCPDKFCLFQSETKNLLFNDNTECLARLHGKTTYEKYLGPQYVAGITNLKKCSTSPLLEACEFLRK
T6 sequence (P01317 25-54 limits assumed): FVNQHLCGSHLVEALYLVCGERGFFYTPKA
T6 sequence (P01317 85-105 limits assumed): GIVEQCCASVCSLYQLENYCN

For the substance “CH3—NH2-(Glu)^−-(Gly)n-(Glu)^−-COO^− [CH3—NH2—(E)^−—(G)1—(E)^−—COO^−]”, the inhibition index on bovine alpha-lactalbumin is on record as 0.2 (0.1); in experiment [1] it was 0.8 (0.1); in experiment [2], 1.6 (0.1); in experiment [3] it was 0.9 (0.1); in experiment [4], 1.0 (0.1); on Bovine insulin, 0.5 (0.2). For the same substance, the results for the inhibition index in experiment [5] (setting [7]) and in experiment [6] were 1.6 (0.1) and 1.9 (0.1), respectively.

Turning to “CH3—NH2-(Glu)^−-(Gly)n-(Glu)^−-COO^− [CH3—NH2—(E)^−—(G)3—(E)^−—COO^−]”, the inhibition index on bovine alpha-lactalbumin is recorded as 0.5 (0.3); in experiment [1] it was 1.0 (0.2); in experiment [2], 1.5 (0.3); in experiment [3], 0.9 (0.2); in experiment [4], 1.2 (0.2); at Bovine insulin, 1.3 (0.4). For the same substance, the inhibition index is 1.3 (0.1) in experiment [5] (setting [7]) and 2.0 (0.3) in experiment [6].

On to “KGGGGGE [^+NH3-(Lys)^+-(Gly)n-(Glu)^−-COO^−, n = 5]”, for which the inhibition index in the experiment with bovine alpha-lactalbumin is reported as 1.8 (0.2); in experiment [1], 2.0 (0.2); in experiment [2], 0.8 (0.1); in experiment [3], 1.5 (0.4); in experiment [4], 0.5 (0.1); with Bovine insulin it was 1.3 (0.3). The inhibition index is reported as 1.4 (0.2) in experiment [5] (setting [7]) and 1.4 (0.3) in experiment [6].

As to “^+NH3-(Lys)^+-(Gly)n-(Glu)^−-COO^− [KGE]”, the inhibition index at bovine alpha-lactalbumin is 0.3 (0.2); in experiment [1] it was 1.2 (0.2); in experiment [2], 0.9 (0.1); in experiment [3], 2.8 (0.8); in experiment [4], 0.7 (0.0); on Bovine insulin, 0.6 (0.3). Moreover, the inhibition index in experiment [5] (setting [7]) was 1.3 (0.1); in experiment [6], 1.7 (0.4).

For the substance “^+NH3-(Lys)^+-(Gly)n-(Lys)^+-CONH2 [^+NH3—(K)^+—(G)1—(K)^+—CONH2]”, the inhibition index on bovine alpha-lactalbumin is recorded as 0.5 (0.2); in experiment [1] it was 1.0 (0.3); in experiment [2], 1.5 (0.2); in experiment [3] it was 0.9 (0.2); at Bovine insulin it was 0.9 (0.1); in experiment [5] (setting [7]) it was 1.2 (0.1). Moreover, the inhibition index in experiment [6] is 2.3 (0.4).

For “^+NH3-(Lys)^+-(Gly)n-(Lys)^+-CONH2 [^+NH3—(K)^+—(G)3—(K)^+—CONH2]”, the inhibition index on bovine alpha-lactalbumin is recorded as 0.8 (0.1); in experiment [1], 0.6 (0.1); in experiment [2], 2.1 (0.1); in experiment [3], 1.2 (0.7); at Bovine insulin it was 0.9 (0.3); in experiment [5] (setting [7]) it was 1.2 (0.1). Besides, the inhibition index in experiment [6] was 1.5 (0.4).

“^+NH3-(Lys)^+-(Gly)n-(Lys)^+-CONH2 [^+NH3—(K)^+—(G)5—(K)^+—CONH2]”: at bovine alpha-lactalbumin, the “inhibition of α-lactalbumin aggregation, in words” value is “Potent inhibitors”. For the same substance, the inhibition index was 2.6 (1.1) on bovine alpha-lactalbumin; 0.8 (0.1) in experiment [1]; 1.5 (0.3) in experiment [2]; 0.8 (0.4) in experiment [3]; 1.7 (1.0) on Bovine insulin; 1.5 (0.2) in experiment [5] (setting [7]). Further, the inhibition index in experiment [6] is given as 3.3 (0.8).

As for hexaglycine, on bovine alpha-lactalbumin, the “inhibition of α-lactalbumin aggregation, in words” value is given as “Potent inhibitors”. For the same substance, the inhibition index was 4.2 (1.1) at bovine alpha-lactalbumin; 0.5 (0.1) in experiment [1]; 1.7 (1.5) in experiment [2]; 0.0 (0.0) in experiment [3]; 0.7 (0.1) in experiment [4]; 1.5 (0.7) at Bovine insulin. In addition, the inhibition index in experiment [5] (setting [7]) is 1.7 (0.5); in experiment [5] (compound 10,000X molar excess, Infinite = complete inhibition of aggregation over one hour), 20.3.
